Laboratory results as given in ChEMBL document CHEMBL3112532, “Synthesis, [¹⁸F] radiolabeling, and evaluation of poly (ADP-ribose) polymerase-1 (PARP-1) inhibitors for in vivo imaging of PARP-1 using positron emission tomography” (Bioorg Med Chem, 2014).

How the values were obtained:
[1] = tested on: Tumour; assay: Drug uptake in tumor of athymic nu/nu mouse xenografted with human MDA-MB-231 cells at 200 uCi measured at 60 mins by microPET image analysis in presence of olaparib; format: ADME, Neoplasm; conditions: in vivo, 1 h
[2] = tested on: Tumour; assay: Drug uptake in tumor of athymic nu/nu mouse xenografted with human MDA-MB-436 cells at 200 uCi measured at 60 mins by microPET image analysis in presence of 5,6-Dihydro-2-(4-(2-fluoroethoxy)phenyl)-imidazo[4,5,1-jk][1,4]benzodiazepin-7(4H)-one; format: ADME, Neoplasm; conditions: 1 h
[3] = tested on: Tumour; assay: Drug uptake in tumor of athymic nu/nu mouse xenografted with human MDA-MB-436 cells at 200 uCi measured at 60 mins by microPET image analysis; format: ADME, Neoplasm; conditions: 1 h
[4] = target: Poly [ADP-ribose] polymerase 1 (Homo sapiens, UniProt P09874); assay: Inhibition of PARP-1 (unknown origin) assessed as NAD+ consumption after 20 mins by fluorometric analysis in presence of activated DNA
Poly [ADP-ribose] polymerase 1, sequence (P09874 whole entry): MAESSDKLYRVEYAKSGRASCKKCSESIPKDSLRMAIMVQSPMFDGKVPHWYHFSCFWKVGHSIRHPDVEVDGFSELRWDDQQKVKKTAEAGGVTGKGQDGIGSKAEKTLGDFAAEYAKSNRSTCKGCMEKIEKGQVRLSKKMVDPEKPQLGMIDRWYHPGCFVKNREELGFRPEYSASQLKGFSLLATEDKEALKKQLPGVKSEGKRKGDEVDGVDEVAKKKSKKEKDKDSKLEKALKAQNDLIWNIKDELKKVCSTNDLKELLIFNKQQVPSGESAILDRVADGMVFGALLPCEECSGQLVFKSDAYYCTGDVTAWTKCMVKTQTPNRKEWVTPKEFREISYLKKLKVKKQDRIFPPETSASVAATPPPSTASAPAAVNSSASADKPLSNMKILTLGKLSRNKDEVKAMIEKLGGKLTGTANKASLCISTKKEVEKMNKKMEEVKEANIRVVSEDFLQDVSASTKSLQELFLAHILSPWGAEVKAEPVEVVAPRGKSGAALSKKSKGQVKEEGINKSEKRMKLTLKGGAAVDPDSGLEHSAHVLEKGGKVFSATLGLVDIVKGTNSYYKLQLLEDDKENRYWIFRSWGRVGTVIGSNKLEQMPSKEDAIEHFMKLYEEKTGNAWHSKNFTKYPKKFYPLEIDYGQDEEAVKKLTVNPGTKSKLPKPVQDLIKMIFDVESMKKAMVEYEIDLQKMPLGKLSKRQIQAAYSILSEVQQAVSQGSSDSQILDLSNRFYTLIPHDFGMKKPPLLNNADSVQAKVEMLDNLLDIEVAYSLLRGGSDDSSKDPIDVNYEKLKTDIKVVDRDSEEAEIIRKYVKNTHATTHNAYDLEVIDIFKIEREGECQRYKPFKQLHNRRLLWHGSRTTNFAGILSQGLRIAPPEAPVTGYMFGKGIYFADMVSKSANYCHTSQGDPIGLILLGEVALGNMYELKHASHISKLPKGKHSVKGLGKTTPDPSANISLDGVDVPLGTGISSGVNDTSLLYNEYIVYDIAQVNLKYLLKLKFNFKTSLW

Drug uptake [1] | Drug uptake [2] | Drug uptake [3] | IC50 [4] [nM] | Compound
Not Active | Not Active | Active |  | O=C1NCCn2c(-c3ccc(OCC[18F])cc3)nc3cccc1c32
 |  |  | 6.3 | O=C1NCCn2c(-c3ccc(OCCF)cc3)nc3cccc1c32
